Like-named read-outs stand apart in the source and are kept apart here.
What was measured:
Type in all cases: cell-based
[1] = test system: circBRIP1 in HCT116 cells; experiment: DHX9 circBRIP1 cellular target engagement TaqMan Multiplex assay (qPCR); conditions: Homo sapiens
[2] = test system: LS411N cells; experiment: DHX9 cellular proliferation assay (CellTiter-Glo), LS411N (CRC-MSI); conditions: Homo sapiens, LS-411N, read-out: LS411N (CRC-MSI-H) Antiproliferative IC50
[3] = test system: NCI-H747 cells; experiment: DHX9 cellular proliferation assay (CellTiter-Glo), NCI-H747 (CRC-MSS); conditions: Homo sapiens
[4] = HCT-116, circBRIP1, HCT116 cells, * Taqman assay was used, read-out: DHX9 Cellular Target Engagement EC50
[5] = NCI-H747, NCI-H747, performed at Pharmaron, read-out: H747 (CRC-MSS) Antiproliferative IC50
[6] = HCT-116, 72 h, circBRIP1, HCT116 cells, 72 hours, Taqman assay (marked *), read-out: DHX9 Cellular Target Engagement EC50
[7] = LS411N, CRC-MSI-H, performed at Pharmaron
[8] = NCI-H747, NCI-H747, CRC-MSS, performed at Pharmaron, read-out: H747 (CRC-MSS) Antiproliferative IC50

SMILES	EC50 [1, 4] [µM]	IC50 ([2]; LS411N, performed at Pharmaron) [nM]	IC50 [3, 5] [nM]	other results
CS(=O)(=O)Nc1cc(Cl)cc(NC(=O)c2cc(-c3ncc(N4CC(C(F)(F)F)C4)cn3)n(CC(F)F)c2)c1 [Example 508]	0.0634	108	6460	–
Cc1cc(C(=O)Nc2cc(Cl)cc(NS(C)(=O)=O)c2)cn1-c1ccc(N2C3CCC2CC3)cn1 [Example 523]	0.0572	174	5950	–
Cn1cc(C(=O)Nc2cc(Cl)cc(NS(C)(=O)=O)c2)cc1-c1ncc(N2CC3(C2)CC(F)(F)C3)cn1 [Example 492]	0.0444	209	> 10000	–
Cc1sc(C(=O)Nc2cc(Cl)cc(NS(C)(=O)=O)c2)cc1-c1ncc(N2CCC(F)(F)C2)cc1F [Example 484]	0.0318	66.2	2600	–
COC1CCN(c2ccc(-c3cc(C(=O)Nc4cc(Cl)cc(NS(C)(=O)=O)c4)cn3C)nc2)CC1 [Example 515, N-(3-chloro-5-methanesulfonamidophenyl)-5-[5-(4-methoxypiperidin-1-yl)pyridin-2-yl]-1-methyl-1H-pyrrole-3-carboxamide]	0.0216	89.3	8780	–
Cc1sc(C(=O)Nc2cc(Cl)cc(NS(C)(=O)=O)c2)cc1-c1ccc(N2CC3(C2)CC(F)(F)C3)cn1 [Example 499]	0.0248	65.7	> 10000	–
COC1CN(c2ccc(-c3cc(C(=O)Nc4cc(Cl)cc(NS(C)(=O)=O)c4)cn3C)nc2)C1 [Example 465]	0.0352	115	> 10000	–
COC(=O)N1CCN(c2cnc(-c3cc(C(=O)Nc4cc(Cl)cc(NS(C)(=O)=O)c4)sc3C)c(C)c2)CC1 [Example 601]	0.106	64.5	> 10000	–
Cn1cc(C(=O)Nc2cc(Cl)cc(NS(C)(=O)=O)c2)cc1-c1ncc(N2CC(F)(F)C2)cc1F [Example 599]	0.0378	149	4330	–
Cc1sc(C(=O)Nc2cc(Cl)cc(NS(C)(=O)=O)c2)cc1-c1ncc(N2CC(C(F)(F)F)C2)cn1 [Example 489]	0.0225	51	2060	–
Cc1sc(C(=O)Nc2cc(Cl)cc(NS(C)(=O)=O)c2)cc1-c1ncc(N(C)S(C)(=O)=O)cn1 [Example 720]	0.0549	452	7900	–
Cn1cc(C(=O)Nc2cc(Cl)cc(NS(C)(=O)=O)c2)cc1-c1ncc(N2CC(F)(F)C2)cc1OCc1cnco1 [Example 733]	0.0883	206	> 10000	–
Cn1cc(C(=O)Nc2cc(Cl)cc(NS(C)(=O)=O)c2)cc1-c1ncc(N2CC(C(F)(F)F)C2)cn1 [Example 493]	0.022	131	> 10000	–
CS(=O)(=O)Nc1cc(Cl)cc(NC(=O)c2c[nH]c(-c3ncc(F)cc3F)c2)c1 [Example 560]	0.148	145	> 10000	–
Cc1sc(C(=O)Nc2cc(Cl)cc(NS(C)(=O)=O)c2)cc1-c1ccc(N2CC(F)(F)C2)cn1 [Example 533]	0.0145	73.9	4810	–
Cc1sc(C(=O)Nc2cc(Cl)cc(NS(C)(=O)=O)c2)cc1-c1ncc(F)cc1C#CC(C)(C)O [Example 696]	0.0367	45.1	7700	–
COc1cc(N2CC(F)(F)C2)cnc1-c1cc(C(=O)Nc2cc(Cl)cc(NS(=O)(=O)CCO)c2)sc1C [Example 528]	0.0723	1130	6960	–
Cn1cc(C(=O)Nc2cc(Cl)cc(NS(C)(=O)=O)c2)cc1-c1ccc(N2CC(C)(F)C2)cn1 [Example 688]	0.0475	122	6360	–

SMILES	EC50 [1, 4] [µM]	IC50 ([2]; LS411N, performed at Pharmaron) [nM]	IC50 [3, 5] [nM]	other results
Cn1cc(C(=O)Nc2cc(Cl)cc(NS(C)(=O)=O)c2)cc1-c1ncc(N2CCCC(F)(F)C2)cc1F [Example 483]	0.061	101	1710	–
Cc1sc(C(=O)Nc2cc(Cl)cc(NS(C)(=O)=O)c2)cc1-c1ncc(N2CCC3(CC2)CC3(F)F)cc1F [Example 478]	0.102	259	4840	–
Cc1cc(C(=O)Nc2cc(Cl)cc(NS(C)(=O)=O)c2)cn1-c1ncc(N2CC(F)(F)C2)cc1C#N [Example 415]	0.0689	502	7150	–
CC(=O)N1CCC(c2cnc(-c3cc(C(=O)Nc4cc(Cl)cc(NS(C)(=O)=O)c4)sc3C)nc2)CC1 [Example 699]	0.0219	517	> 10000	–
Cn1cc(C(=O)Nc2cc(Cl)cc(NS(C)(=O)=O)c2)cc1-c1cccc(N2CC(F)(F)C2)n1 [Example 551]	0.127	225	3500	–
Cc1sc(C(=O)Nc2cc(Cl)cc(NS(C)(=O)=O)c2)cc1-c1ccc(C#N)cn1 [Example 377]	–	–	–	EC50 [1, 6]: 0.0374 µM; IC50 [2, 7]: 140 nM; IC50 [3, 8]: > 10000 nM
CCS(=O)(=O)Nc1cc(Cl)cc(NC(=O)c2cc(-c3ncc(OC)cn3)c(C)s2)c1 [Example 353]	–	–	–	EC50 [1, 6]: 0.094 µM; IC50 [2, 7]: 111 nM; IC50 [3, 8]: 8490 nM
COC1CN(c2cnc(-n3cc(C(=O)Nc4cc(Cl)cc(NS(C)(=O)=O)c4)cc3C)nc2)C1 [Example 404]	0.0356	138	> 10000	–
CCOc1cnc(-c2cc(C(=O)Nc3cc(Cl)cc(NS(=O)(=O)CC)c3)sc2C)nc1 [Example 365]	–	–	–	EC50 [1, 6]: 0.0339 µM; IC50 [2, 7]: 116 nM; IC50 [3, 8]: > 10000 nM
Cc1sc(C(=O)Nc2cc(Cl)cc(NS(C)(=O)=O)c2)cc1-c1ncc(N2CCC(F)(F)C2)cn1 [Example 479]	0.0169	37.4	7410	–
Cc1sc(C(=O)Nc2cc(Cl)cc(NS(C)(=O)=O)c2)cc1-c1ncc(C#N)cn1 [Example 585]	0.0651	208	> 10000	–
COc1cc(N2CC(F)(F)C2)cnc1-n1cc(C(=O)Nc2cc(Cl)cc(NS(C)(=O)=O)c2)cc1C [Example 421]	0.0194	114	> 10000	–
Cc1sc(C(=O)Nc2cc(Cl)cc(NS(C)(=O)=O)c2)cc1-c1ncccc1OC(C)c1cc(F)cc(F)c1 (single isomer, unassigned) [Example 633]	0.046	10.4	6460	–
CCS(=O)(=O)Nc1cc(Cl)cc(NC(=O)c2cc(-c3ccc(F)cn3)c(C)s2)c1 [Example 346]	–	–	–	EC50 [1, 6]: 0.0438 µM; IC50 [2, 7]: 71.6 nM; IC50 [3, 8]: 7340 nM
Cc1sc(C(=O)Nc2cc(Cl)cc(NS(C)(=O)=O)c2)cc1-c1ncc(OC(C)C)cn1 [Example 541, N-(3-chloro-5-(methylsulfonamido)phenyl)-4-(5-isopropoxypyrimidin-2-yl)-5-methylthiophene-2-carboxamide]	–	–	–	EC50 ([1]; HCT-116, read-out: DHX9 Cellular Target Engagement EC50 (μM)): 0.0377 µM; IC50 [2]: 49.8 nM; IC50 ([3]; NCI-H747, read-out: H747 (CRC-MSS) Antiproliferative IC50): 6000 nM
CN(C)CCOc1cnc(-c2cc(C(=O)Nc3cc(Cl)cc(NS(C)(=O)=O)c3)cn2C)c(F)c1 [Example 646]	0.0453	32.5	> 10000	–
Cc1sc(C(=O)Nc2cc(Cl)cc(NS(C)(=O)=O)c2)cc1-c1ncc(N2CC(F)(F)C2)cn1 [Example 510]	0.0161	123	> 10000	–
Cn1cc(C(=O)Nc2cc(Cl)cc(NS(C)(=O)=O)c2)cc1-c1c(F)cc(F)cc1F [Example 547]	0.127	173	5430	–
